Experiment [1] has as its system influenza A virus (strain A/Kumamoto/Y5/67 H2N2). Conditions: mouse, in vivo; cited from earlier work.
For experiment [2], the system named is influenza A virus (strain A/Puerto Rico/8/1934/H1N1). In words: Viral load in lungs of PR8-infected mice by plaque assay on MDCK cells. The settings on record: for Average viral load (pfu): substances in drinking water (experimental group also intraperitoneal injection). Format: in vivo, C57BL/6J mice.
The test system of experiment [3] is influenza A virus (strain A/Hong Kong/X31/68 H3N2). Conditions: lungs of infected mice, 1-MT in drinking water; cited from earlier work.
In experiment [4] the test system is influenza A virus (strain A/Aichi/2/1968 H3N2). The settings on record: 0.7 M arginine-containing solution, cited from earlier work.
Setting [5] is: mice lungs, seventh day after intranasal inoculation with 200 pfu PR8 virus.
Setting [6] is: mice lungs, seventh day after virus inoculation.

SMILES strings stand for the structures. Read-outs that look alike come from different tables or passages of the source.

As for `CN=C(N)NCCC[C@H](N)C(=O)O.O=C(O)CC(O)(CC(=O)O)C(=O)O` [Inhibitor group 1, L-NG-monomethyl arginine citrate], in experiment [1], the “production of NO-hemoglobin in the lungs” value is recorded as “inhibit” and the survival rate result is given as “effectively increasing”. Also, in experiment [2] ([…]), the “Average viral load (pfu)” value is 4.30 × 10^3 pfu. In addition, the “average viral load compared with the control group” value in experiment [2] (mouse, in vivo) is “significantly lower”.
`N=C(NO)NCC[C@H](N)C(=O)O` [Inhibitor group 2, N^ω-hydroxy-nor-L-arginine acetate]: the “Average viral load (pfu)” value in experiment [2] (setting [5]) is reported as 2.47 × 10^3 pfu. In experiment [2] (setting [6]), the “average viral load compared with the control group” value is recorded as “significantly lower”.
As for `Cn1cc(C[C@H](N)C(=O)O)c2ccccc21` [Inhibitor group 3, 1-methyl-tryptophan], the “number of activated and functional CD4+ T-cells, influenza-specific CD8+ T-cells and effector memory cells” value in experiment [3] is listed as “increased significantly”. In addition, the “Average viral load (pfu)” value in experiment [2] (setting [5]) is on record as 4.37 × 10^3 pfu. The “average viral load compared with the control group” value in experiment [2] (setting [6]) is listed as “significantly lower”.
Consider `N=C(N)NCCC[C@H](N)C(=O)O` [arginine], for which the virus inactivation effect result is given as “most potent virus inactivation effect” in experiment [4] (pH 4.5, on ice for 30 to 60 minutes) and “no virus inactivation effect was detected” in experiment [4] (pH 5.5, on ice for 30 to 60 minutes).

Values taken from patent US20190275002A1 (priority 2018, published 2019).
